The values below are quoted from earlier work in US20250213580A1, “Improved Thiopurine Formulation and Treatment Methods” (Douglas Pharmaceuticals Ltd, priority 2022, published 2025).

Like-named read-outs stand apart in the source and are kept apart here.

The subject of the data set is spontaneous colitis in a mouse model. The conditions noted are these: intra-rectal administration.

For the compound `S=c1nc[nH]c2nc[nH]c12` [Formulation 6-MP, 3,7-dihydropurine-6-thione], the effect on colitis entry (within 14 days, distal colon) is “did not provide any significant improvement in colitis”.
Turning to `Nc1nc(=S)c2[nH]cnc2[nH]1` [Formulation 6-TG, 2-amino-6,7-dihydro-3H-purine-6-thione], the effect on colitis result is reported as “no improvement in colitis” (mid-colon or proximal colon) and “ameliorated spontaneous colitis” (within 14 days, distal colon).
